These results are taken from paper PMC5522078, “Discovery and characterization of small molecules targeting the DNA-binding ETS domain of ERG in prostate cancer” (Oncotarget, 2017).

SMILES strings stand for the structures. Like-named read-outs stand apart in the source and are kept apart here.

In data set [1] the test system is VCaP cells.
Description: (media), and phosphate buffered saline (PBS) and vortex Cells were detached by treatment with Accutase
Saturated PBS samples were further software (TreeStar, USA). […] Aliquots of these analysed statistically by Two-Way ANOVA.
A further data set addresses T1, ERG-ETS/DNA complex (Homo sapiens, UniProt P11308).
T1 construct: A pET28a plasmid encoding residues 307–400 of the ERG-ETS domain; His6 (cleaved yes); made in house; host or cells: E. coli BL21 (λDE3)
T1 sequence (P11308 307-400): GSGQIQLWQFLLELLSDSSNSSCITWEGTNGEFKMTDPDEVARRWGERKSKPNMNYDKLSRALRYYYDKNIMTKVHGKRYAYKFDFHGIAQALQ
Briefly: EMSA competition, purified ERG-ETS domain and dsDNA. Particulars: for Disruption of recombinant ERG-ETS/DNA complex formation: up to 8 mM. The data set is classed as binding. The method, then:
To prepare the probe for the gel shift assay, equal amounts (200 nM) of Alexa-488 fluorophore-labeled DNAs ([NT] and its complement) were mixed, heated to 95°C for 30 minutes, and then slowly cooled to 25°C in several hours. […] The gel was scanned with Typhoon 9200 Imager equipped with blue laser to excite at 490 nm and fluorescence was measured at 520 nm. The scanned image was analyzed with Image J [48]. […] The result of this initial study was used to set the molar ratio of ERG-ETS domain:DNA in subsequent competition assays with VPC-18005. […] The data were fit to the equation for competitive binding, fb,i = [ERG]/([ERG] + KD{1 + [VPC-18005]i/KI}), where KI is the inhibitor dissociation constant and the fraction bound, fb,i, was calculated the intensity of the bound DNA band at each titration point relative to that without added VPC-18005. A control experiment was carried out by titrating with equivalent quantities of DMSO.
(In general: In EMSA bound probe runs differently from free probe, usually more slowly.)

Data set [2] has as its system VCaP cells. Briefly: MTS cell viability assay, VCaP. The data set is classed as cell-based, human. Particulars: 72 h. The protocol: (§1) 3-(4,5-dimethylthiazol-2-yl)-5-(3-carboxymethoxyp henyl)-2-(4-sulfophenyl)-2H-tetrazolium, inner salt (MTS). Cells were seeded at a density of 3000 cells per well (except VCaP at 20,000/well) in 100 μL of appropriate media in 96 well culture dishes. Twenty four hours later, 100 μL of medium containing vehicle control or compounds. Each treatment was prepared in triplicate. After a 72 h treatment, cellular viability was assessed using CellTiter 96 ® Aqueous One Solution Cell Proliferation Assay reagent (Promega) according to the manufacturer's instructions. Values were normalized to the DMSO control.
On the technique in general: Tetrazolium assays rely on reduction of a dye to a coloured formazan, in cell work by metabolically active cells.

The nature of data set [3]: Compound solubility and stability (LC-PDA-MS). The data set is classed as physicochemical. The method, then:
This […] […] Data was analyzed using FlowJo Eppendorf tubes. Saturated PBS samples were further software (TreeStar, USA). […] After 24 h, plates were treated with vehicle control, […] and a Quattro Premier (Waters). […] […] diluting stocks (50 mM in DMSO) 1000x in Methanol (standard), PBS, or media. Resulting solutions were clarified by centrifugation and an aliquot of the supernatant was extracted with 2 volumes acetonitrile. VPC-18005 solubility determined as fraction remaining as quantified by LC-PDA-MS versus the methanol solution as standard.

The subject of a further data set is PC3 cells. As to the kind of experiment: MTS cell viability assay, PC3. The data set is classed as cell-based, human. The conditions noted are these: 72 h. The protocol:
as §1

The subject of data set [4] is PNT1B-ERG cells. As to the kind of experiment: Real time growth assay (Incucyte confluence). The data set is classed as cell-based, human. Particulars: 1, 5 or 15 µM; 168 h. The method, then:
www.impactjournals.com/oncotarget/ Oncotarget Supplementary Materials
Discovery and characterization of small molecules targeting the DNA-binding ETS domain of ERG in prostate cancer […]
samples where less saturation of MS data is expected. This […]
and gives reasonable estimates when the use of MS […]
sulfoxide (DMSO) were diluted 1,000× into methanol
The (Gibco), then underwent APC BrdU Flow Kit protocol
Cells were analysed on a FACSCanto™
Data was analyzed using FlowJo
Eppendorf tubes. Saturated PBS samples were further software (TreeStar, USA). Biological replicates were diluted with an equal volume of PBS. Aliquots of these analysed statistically by Two-Way ANOVA. […]
the dark. Aliquots taken at later time points were vortex mixed for 1 h prior to sampling. MeOH and diluted PBS Proliferation/cell viability assay […]
were extracted with two volumes acetonitrile (ACN) and centrifuged at 20,000 g for 5 min.
After 24 h, plates were treated with vehicle control, […]
and a Quattro Premier (Waters).
2points/sec were collected with the PDA. The sampler expression datasets from PCa patients […]
represent the mean ± SEM of triplicate experiments. […]
post hoc test. […] The G0–G1 phase
Growth assay of PNT1B-ERG cells

Data set [5] concerns PNT1B-ERG cells. As to the kind of experiment: MTS cell viability assay, PNT1B-ERG. The data set is classed as cell-based, human. Particulars: 72 h. The method, then: as §1
The subject of data set [6] is PNT1B-ERG cells. Briefly: Real time cell migration (xCELLigence), PNT1B cells. The data set is classed as cell-based, human. The conditions noted are these: 5 μM. The method, then:
Cell migration was monitored using CIM-16 migration plates via the xCELLigence platform (ACEA). FBS-supplemented media (160 μL) was added to the lower chamber of the plate and incubated at RT for 30 min. The upper chamber was then mounted and 30 μL of serum free media (SFM) was added to each well and left to equilibrate in the incubator for 1 h at 37°C. After the incubation, a background reading was taken for each well. […] Real time readings of cell index values were recorded initially every 5 min until the end of the experiment (48 hr).

The subject of a further data set is zebrafish embryos. As to the kind of experiment: Compound toxicity to zebrafish embryos. The data set is classed as in vivo.
The next data set relates to PNT1B-ERG spheroids. As to the kind of experiment: 3D spheroid invasion assay. The data set is classed as cell-based, human. The conditions noted are these: compared to vehicle control. The method, then: 3D Spheroid BME Cell Invasion Assay (Trevigen) was performed as per manufacturer's instructions. […] Spheroids were then incubated at 37°C for 3 to 7 days, and photographed using Zeiss AxioObserver Z1 microscope in each well on the day of invasion mix addition and every two days following. Spheroids were retreated with 50 μL of vehicle control or compound after 72 hr.

A word on the solubility: it is the concentration that dissolves in the medium under given conditions. For the compound `CC(C)c1ccc(C=N/N=C2\NC(=O)[C@@H](CC(=O)O)S2)cc1` (stereo in doubt) [VPC-18005, 2-((Z)-2-(((Z)-4-isopropylbenzylidene)hydrazono)-4-oxothiazolidin-5-yl)acetic acid], the “Impact on cell cycle distribution” value with VCaP cells [1] was “did not impact cell cycle distribution”. Besides, on ERG-ETS/DNA complex (4 nM ERG-ETS domain, 1 nM dsDNA, read-out: KI, disruption of ERG-ETS/DNA complex formation), the Ki is ~250 µM. The “Disruption of recombinant ERG-ETS/DNA complex formation” value on ERG-ETS/DNA complex was “dose-dependent disruption”. In the data set with VCaP cells [2] (0.2–25 μM), the “Effect on cell viability (MTS), VCaP” value is on record as “did not decrease viability”. Also, in data set [3] (cell culture media (RPMI + 5% charcoal stripped serum), plasma or biological fluid, kinetic from dmso stock, RPMI + 5% CSS, 50 mM DMSO stock diluted 1,000x), the solubility at 1 h is > 50 µM. Further, the “Media solubility” value in [3] (media) is “soluble in media”. Moreover, in data set [3] (media, 3 days, RT), the “Stability in media (fraction remaining)” value is 93%. Also, the “Effect on cell viability (MTS), PC3” value in the data set on PC3 cells (0.2–25 μM) is “did not decrease viability”. The “Effect on proliferation / cell growth (real time cell analysis)” value with PNT1B-ERG cells [4] was “did not suppress proliferation or induce cell death”. The “Effect on cell viability (MTS), PNT1B-ERG” value with PNT1B-ERG cells [5] (0.2–25 μM) is listed as “did not decrease viability”. Also, the “Rate of migration of PNT1B-ERG cells” value in the data set with PNT1B-ERG cells [6] (24 h exposure, relative to vehicle) is on record as “significantly reduced”. Besides, the “Concentration at which embryos remained viable” value in the data set on zebrafish embryos (72 h) is given as “up to 50 μM”. Also, the “Rate of spheroid invasion between day 2 and 6” value with PNT1B-ERG spheroids is given as “significantly reduced”.
Regarding `COc1ccc(C(=O)CC2(O)C(=O)Nc3c(Cl)ccc(Cl)c32)cc1` (stereo not drawn) [YK-4-279, reference compound], the “G0–G1 phase population” value in the data set on VCaP cells [1] (5 and 10 μM) was “concomitantly reduced”. Further, the “Disruption of recombinant ERG-ETS/DNA complex formation” value at ERG-ETS/DNA complex is “did not disrupt binding”. Besides, in the data set on VCaP cells [2], the “Doses with inhibition of cell viability (MTS), VCaP” value is ≥ 5 µM. Moreover, the “Media solubility” value in [3] is given as “soluble”. Also, in data set [3] (72 h), the “Stability in media (fraction remaining)” value is 60%. The “Doses with inhibition of cell viability (MTS), PC3” value in the data set on PC3 cells is ≥ 5 µM. For the same compound, in the data set with PNT1B-ERG cells [4], the “Effect on proliferation / cell growth (real time cell analysis)” value is given as “dose-dependent effect”. In addition, the “Doses with inhibition of cell viability (MTS), PNT1B-ERG” value with PNT1B-ERG cells [5] is ≥ 5 µM. The “Cytotoxicity in migration assay” value in the data set with PNT1B-ERG cells [6] (PNT1B-MOCK and PNT1B-ERG cells) is “cytotoxicity in both cell lines”. The “Concentrations at which embryos exhibited toxicity” value with zebrafish embryos was > 10 µM. For the same compound, the “Rate of spheroid invasion between day 2 and 6” value with PNT1B-ERG spheroids is “significantly reduced”.
